Assay in all cases: NCI-60 cell line screen, 48 h
For assay [1], the system named is SF-539 CNS.
For assay [2], the system named is NCI-H23 lung.
Assay [3] has as its system NCI/ADR-RES ovarian.
For assay [4], the system named is M14 melanoma.
For assay [5], the system named is KM12 colon.
The subject of assay [6] is SK-OV-3 ovarian.
The test system of assay [7] is ACHN renal.
Assay [8] concerns RXF 393 renal.
The subject of assay [9] is HCT-116 colon.
Assay [10] has as its system HOP-62 NSCLC.

Several values for one entry are separate records, joined by “and”; a condition that tells them apart may be missing. Equal entries are not always repeated.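 Cultured in 96-well plates, cells were exposed to test compound for 48 hours across five concentrations. GI50 = concentration required for 50% inhibition of growth. TGI: concentration producing complete growth inhibition.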

On to `COC(=O)C(Cc1cnc[nH]1)NC(=O)CNC(=O)CCCn1c(=O)c2c3ccccc3n(C)c2n2nnc(-c3ccccc3)c12` (stereo not given), for which the GI50 in assay [1], in assay [2], in assay [3], in [4], in [5] and in assay [6] was > 100 µM each time. Besides, the GI50 in assay [7], in [8], in [9] and in assay [10] was > 100 µM each time. The TGI in assay [1], in assay [2], in assay [3], in assay [4], in assay [5] and in [6] was > 100 µM throughout. Moreover, the TGI in assay [7], in [8], in [9] and in assay [10] was > 100 µM each time.
Turning to `CO/[N+]([O-])=C\C(=O)N/C=C/C(=O)O`, the TGI in assay [1], in assay [2], in [3], in assay [4], in assay [5] and in [6] was > 100 µM throughout. Moreover, the TGI in assay [7], in assay [8], in assay [9] and in assay [10] was > 100 µM in each case.
With `CCN(CC)CC.CCOc1ccc(NC(=O)N=C=[N-])cc1.[CH-]1CCCCC1.[CH-]1CCCCC1.[CH-]1CCCCC1.[Cl-].[Sn+4]`, the GI50 in assay [1] is 0.0234 µM; in assay [2], 0.0312 µM; in [3], 0.0221 µM; in [4], 0.0264 µM; in assay [5], 0.0161 µM; in assay [6] it was 0.0466 µM. For the same compound, the GI50 in assay [7] was 0.0493 µM; in [8] it was 0.0146 µM; in assay [9], 0.014 µM; in [10] it was 0.122 µM. The TGI is 0.052 µM in [1]; 0.0882 µM in assay [2]; 0.0559 µM in assay [3]; 0.0727 µM in assay [4]; 0.0429 µM in assay [5]; 0.118 µM in [6]. In addition, the TGI in [7] is 0.116 µM; in [8], 0.0336 µM; in assay [9], 0.0289 µM; in assay [10] it was 0.234 µM.
Take `O=C(c1ccc(OCCN2CCCCC2)cc1)c1c(-c2ccc(O)cc2)sc2cc(O)ccc12`: the GI50 in assay [1] is 12.1 µM and 11 µM; in assay [2] it was 10.8 µM and 18.5 µM; in assay [3] it was 7.72 µM and 17.7 µM; in assay [4], 3.23 µM and 10.3 µM; in [5] it was 4.49 µM and 9.32 µM; in [6], 11.3 µM and 14.2 µM. Also, the GI50 in [7] is 13.5 µM and 14.7 µM; in assay [8], 5.2 µM and 4.32 µM; in assay [9] it was 3.68 µM and 8.5 µM; in [10], 10.4 µM and 15.4 µM. Also, the TGI in assay [1] is 27.2 µM and 25.7 µM; in assay [2] it was 27 µM and 45.2 µM; in [3], 23.1 µM and 42.6 µM; in assay [4], 11.1 µM and 32.3 µM; in [5], 15.3 µM and 34.3 µM; in assay [6] it was 23.3 µM and 30.4 µM. The TGI in assay [7] is 27.2 µM and 28.2 µM; in assay [8], 19.1 µM and 15.9 µM; in assay [9] it was 14 µM and 42.7 µM; in [10], 22.2 µM and 43.8 µM.
For the compound `O=C(CSc1nc2ccccc2nc1-c1ccccc1)Nc1ccc(Cl)cc1`, the GI50 in [1] was 16.3 µM; in [2], 30.5 µM; in assay [3], 24.9 µM; in assay [4], 23.7 µM; in assay [5], 59.4 µM; in assay [6], 78.9 µM. Besides, the GI50 was 12.3 µM in [7], 19.1 µM in assay [8], 5.24 µM in [9] and 5.28 µM in [10]. Further, the TGI was 36.6 µM in assay [1]; > 100 µM in [2]; 91.5 µM in assay [3]; > 100 µM in assay [4]; > 100 µM in [5]; > 100 µM in [6]. The TGI was found to be 47.1 µM in assay [7], 62.7 µM in assay [8], 24 µM in [9] and 20.4 µM in [10].
`Cc1cc(C(=O)Nc2nc3cccc(Cl)c3n2[C@@H]2CCCCN(C(=O)/C=C/CN(C)C)C2)ccn1`: the GI50 in [1] is 15.1 µM; in [2], 12.9 µM; in assay [3], 5.37 µM; in assay [4], 13.7 µM; in assay [5], 9.43 µM; in assay [6], 0.0792 µM. Besides, the GI50 in assay [7] was 0.406 µM; in assay [8], 9.35 µM; in [9] it was 6.5 µM; in assay [10], 12.5 µM. Moreover, the TGI is 29.5 µM in assay [1]; 38 µM in assay [2]; 49 µM in [3]; 27.5 µM in assay [4]; 25.6 µM in [5]; 9.03 µM in assay [6]. Further, the TGI stood at 16.3 µM in [7], 25.1 µM in assay [8], 19.5 µM in [9] and 27.4 µM in [10].
As to `CCNCCC1(CC)C(=O)NC(=O)NC1=O`, the TGI in assay [1], in assay [2], in assay [3], in assay [4], in assay [5] and in assay [6] was > 100 µM each time. For the same compound, the TGI in assay [7], in assay [8], in assay [9] and in assay [10] was > 100 µM each time.

Values taken from PubChem BioAssay (NCI).
